Among the test systems are A498; RXF 393; BT-549; NCI-H23; KM12; SF-268; SK-OV-3; CAKI-1; NCI-H226; U-251; OVCAR-8; CCRF-CEM; SR; DU-145; HOP-92; SK-MEL-5; SW-620; MDA-MB-435; ACHN.
Common to all, as to test: NCI-60 cell line screen, 48 h

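All cell lines were grown in 96-well plates and treated with compound for 48 hours. GI50 marks 50% less growth.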 The source made the active and inactive calls. Rule as the data show it: active = GI50 up to about 1.1 µM and inactive = higher. Some results are limits rather than exact numbers.

For the molecule `Nc1nc(-c2cc(-c3cccc4ccccc34)nc(N)n2)cc(-c2cccc3ccccc23)n1`, the GI50 in the assay with A498, in the assay with RXF 393, in the assay on BT-549, in the assay on NCI-H23, with KM12 and in the assay with SF-268 was > 100 µM (inactive) each time. Moreover, the GI50 in the assay on SK-OV-3, with CAKI-1, with NCI-H226, in the assay with U-251, with OVCAR-8 and with CCRF-CEM was > 100 µM (inactive) in each case. Besides, the GI50 with SR, in the assay with DU-145, with HOP-92, in the assay on SK-MEL-5, with SW-620 and in the assay with MDA-MB-435 was > 100 µM (inactive) each time. The GI50 with ACHN is > 100 µM (inactive).
For the molecule `O=c1c2cccnc2[s+]([O-])n1Cc1ccccc1` (centres undefined), the GI50 in the assay on A498, in the assay with RXF 393, in the assay on BT-549, with NCI-H23, in the assay on KM12 and in the assay on SF-268 was > 100 µM (inactive) in each case. For the same molecule, the GI50 is > 100 µM (inactive) in the assay on SK-OV-3; > 100 µM (inactive) in the assay with CAKI-1; > 100 µM (inactive) in the assay with NCI-H226; > 100 µM (inactive) with U-251; > 100 µM (inactive) in the assay on OVCAR-8; 3.01 µM (inactive) in the assay with CCRF-CEM. Further, the GI50 in the assay on SR, in the assay with DU-145, in the assay on HOP-92, with SK-MEL-5, in the assay on SW-620 and in the assay on MDA-MB-435 was > 100 µM (inactive) in each case. In addition, the GI50 in the assay with ACHN is > 100 µM (inactive).
Turning to `COc1cc2c(C)cc(O)cc2c2cc(O)c(C)cc12`, the GI50 was 11.2 µM (inactive) in the assay on A498; 12.4 µM (inactive) in the assay with RXF 393; 12.7 µM (inactive) in the assay on BT-549; 11.5 µM (inactive) in the assay on NCI-H23; 5.24 µM (inactive) in the assay on KM12; 13.7 µM (inactive) with SF-268. The GI50 with SK-OV-3 was 12.9 µM (inactive); with CAKI-1 it was 11.7 µM (inactive); in the assay with NCI-H226, 13.5 µM (inactive); in the assay with U-251 it was 11.2 µM (inactive); in the assay with OVCAR-8, 14.4 µM (inactive); with CCRF-CEM, 2.78 µM (inactive). Moreover, the GI50 is 1.53 µM (inactive) in the assay with SR; 10.9 µM (inactive) with DU-145; 12 µM (inactive) with HOP-92; 10.5 µM (inactive) in the assay with SK-MEL-5; 10.2 µM (inactive) in the assay with SW-620; 9.75 µM (inactive) in the assay with MDA-MB-435. The GI50 in the assay on ACHN is 12.4 µM (inactive).
`O=C(O)CN1CCN2CCOCCN(CC1)CCN(CC(=O)O)CC2`: the GI50 in the assay on A498, with RXF 393, with BT-549, with NCI-H23, in the assay with KM12 and with SF-268 was > 100 µM (inactive) throughout. For the same molecule, the GI50 in the assay on SK-OV-3, in the assay with CAKI-1, in the assay with NCI-H226, in the assay with U-251, in the assay on OVCAR-8 and with CCRF-CEM was > 100 µM (inactive) each time. The GI50 with SR, in the assay on DU-145, in the assay on HOP-92, in the assay with SK-MEL-5, in the assay on SW-620 and with MDA-MB-435 was > 100 µM (inactive) throughout. Further, the GI50 in the assay on ACHN was > 100 µM (inactive).
Turning to `CC1(C)CC[C@]2(C(=O)O)CC[C@]3(C)C(=CC[C@@H]4[C@@]5(C)CC[C@H](OC6OC(C(=O)O)C(O)C(O)C6O)C(C)(C)[C@@H]5CC[C@]43C)[C@@H]2C1` (some centres undefined), the GI50 in the assay with A498 was 19.1 µM (inactive); with RXF 393, 16.7 µM (inactive); with BT-549, 20.9 µM (inactive); in the assay on NCI-H23, 18.9 µM (inactive); in the assay on KM12 it was 16.5 µM (inactive); with SF-268 it was 17.3 µM (inactive). The GI50 in the assay with SK-OV-3 is 19.5 µM (inactive); in the assay on CAKI-1, 18.7 µM (inactive); in the assay on NCI-H226 it was 18.5 µM (inactive); with U-251 it was 14.9 µM (inactive); in the assay on OVCAR-8, 20.8 µM (inactive); with CCRF-CEM, 21 µM (inactive). In addition, the GI50 was 15 µM (inactive) in the assay on SR; 16.8 µM (inactive) with DU-145; 13.1 µM (inactive) in the assay with HOP-92; 19.1 µM (inactive) with SK-MEL-5; 17.4 µM (inactive) in the assay on SW-620; 19.2 µM (inactive) in the assay with MDA-MB-435. For the same molecule, the GI50 in the assay on ACHN is 16.1 µM (inactive).
`CCCC[Si](CCCC)(CCCC)O[C@@H](/C=C/C(=O)OCC)[C@H](Cc1ccccc1)O[Si](CCCC)(CCCC)CCCC`: the GI50 in the assay on A498, in the assay with RXF 393, in the assay on BT-549, with NCI-H23, in the assay on KM12 and in the assay with SF-268 was > 100 µM (inactive) in each case. For the same molecule, the GI50 in the assay with SK-OV-3, in the assay on CAKI-1, with NCI-H226, in the assay with U-251, in the assay on OVCAR-8 and in the assay with CCRF-CEM was > 100 µM (inactive) throughout. For the same molecule, the GI50 with SR, in the assay on DU-145, in the assay on HOP-92, with SW-620, with MDA-MB-435 and in the assay on ACHN was > 100 µM (inactive) throughout.
Turning to `CC[C@@]1(O)C(=O)OCc2c1cc1n(c2=O)Cc2c-1nc1ccccc1c2/C=N\NC(=O)C(C)N` (some centres undefined), the GI50 in the assay with A498 is 0.111 µM (active); in the assay on RXF 393 it was 1.04 µM (active); in the assay with BT-549 it was 0.303 µM (active); in the assay on NCI-H23 it was < 0.0214 µM (active); with KM12 it was 5.36 µM (inactive); in the assay with SF-268 it was < 0.017 µM (active). The GI50 with CAKI-1 is 0.071 µM (active); with NCI-H226, 0.33 µM (active); with U-251, < 0.0195 µM (active); with OVCAR-8 it was 0.0923 µM (active); in the assay on CCRF-CEM, < 0.01 µM (active); in the assay on SR it was < 0.01 µM (active). Besides, the GI50 in the assay with DU-145 is 0.0401 µM (active); with HOP-92, 0.179 µM (active); with SK-MEL-5, 0.238 µM (active); in the assay with SW-620, 1.37 µM (inactive); with MDA-MB-435, 1.61 µM (inactive); in the assay with ACHN, < 0.0216 µM (active).
Take `Nc1nc(N)c(N=O)c(Nc2ccc(O)cc2)n1`: the GI50 in the assay on A498 was > 55.8 µM (inactive); with RXF 393, 93.3 µM (inactive); in the assay on BT-549, > 40.4 µM (inactive); in the assay on NCI-H23, 49.9 µM (inactive); with KM12 it was > 57.4 µM (inactive); with SF-268, 38 µM (inactive). In addition, the GI50 with SK-OV-3 was 18.1 µM (inactive); in the assay with CAKI-1, > 45.4 µM (inactive); in the assay on NCI-H226 it was 23.7 µM (inactive); in the assay on U-251 it was > 52 µM (inactive); with OVCAR-8 it was 32 µM (inactive); in the assay with CCRF-CEM, 14.9 µM (inactive). Besides, the GI50 is 14.8 µM (inactive) in the assay on SR; 34.6 µM (inactive) with DU-145; 20.8 µM (inactive) in the assay on HOP-92; 26.5 µM (inactive) in the assay on SK-MEL-5; > 60.5 µM (inactive) in the assay with SW-620; 38.7 µM (inactive) in the assay with MDA-MB-435. The GI50 in the assay with ACHN was 46.2 µM (inactive).
As to `CCC1c2[nH]c3ccccc3c2C[C@H]2C(=O)N3CCC[C@H]3C(=O)N12` (some centres undefined), the GI50 is > 100 µM (inactive) in the assay with A498; > 100 µM (inactive) in the assay on RXF 393; > 100 µM (inactive) in the assay with BT-549; > 100 µM (inactive) in the assay with NCI-H23; 71.1 µM (inactive) with KM12; > 100 µM (inactive) in the assay on SF-268. In addition, the GI50 was > 100 µM (inactive) in the assay on SK-OV-3; > 100 µM (inactive) with CAKI-1; > 100 µM (inactive) in the assay on NCI-H226; 92.5 µM (inactive) with U-251; > 100 µM (inactive) in the assay with OVCAR-8; 59.3 µM (inactive) in the assay with SR. Besides, the GI50 in the assay with DU-145 is > 100 µM (inactive); in the assay on HOP-92 it was > 100 µM (inactive); in the assay with SK-MEL-5, 30.4 µM (inactive); with SW-620 it was 92.9 µM (inactive); in the assay with MDA-MB-435, > 100 µM (inactive); in the assay with ACHN, > 100 µM (inactive).
As for `O=C(O)C(C1NCCS1)N1Cc2ccccc2C1` (centres undefined), the GI50 in the assay on A498, in the assay on RXF 393, with BT-549, in the assay on NCI-H23, with KM12 and in the assay with SK-OV-3 was > 100 µM (inactive) throughout. In addition, the GI50 in the assay with CAKI-1, in the assay on NCI-H226, in the assay with U-251, with OVCAR-8, in the assay with CCRF-CEM and in the assay on SR was > 100 µM (inactive) in each case. For the same molecule, the GI50 with DU-145, in the assay on HOP-92, in the assay on SK-MEL-5, in the assay on SW-620, in the assay on MDA-MB-435 and with ACHN was > 100 µM (inactive) in each case.
`COc1nc2c(c(=O)[nH]1)N=C(c1ccccc1)CC(c1ccccc1)N2` (centres undefined): the GI50 in the assay on A498 was > 100 µM (inactive); with RXF 393, 31 µM (inactive); in the assay with BT-549 it was 37.4 µM (inactive); in the assay on NCI-H23, 74.3 µM (inactive); with KM12 it was 30.7 µM (inactive); in the assay with SK-OV-3, 58.5 µM (inactive). The GI50 with CAKI-1 is 91 µM (inactive); in the assay with NCI-H226, 72.6 µM (inactive); in the assay with U-251, 44.9 µM (inactive); with OVCAR-8, 28.1 µM (inactive); in the assay with CCRF-CEM it was 36.4 µM (inactive); in the assay with SR it was > 10 µM (inactive). Further, the GI50 was 82 µM (inactive) with DU-145; 80.9 µM (inactive) with HOP-92; 38.3 µM (inactive) in the assay on SK-MEL-5; 35.7 µM (inactive) in the assay on SW-620; 59.7 µM (inactive) in the assay on MDA-MB-435; 30.3 µM (inactive) in the assay on ACHN.

These data come from ChEMBL document CHEMBL1201862, “PubChem BioAssay data set” (2004).
